Source: paper PMC6609034, “Unraveling the role of the secretor antigen in human rotavirus attachment to histo-blood group antigens” (PLoS Pathogens, 2019)

Legend:
P[8]c M4(Ile173Val) VP8* = target: T1, P[8]c M4(Ile173Val) VP8* (Rotavirus A, UniProt A0A0S0VKY7, I110V); assay: SPR apparent affinity of VP8* for immobilized HBGAs; assay type: binding, human rotavirus; conditions: for Kd: PAA-biotin glycan immobilized on SA chip, VP8* as analyte, 10°C, ± standard deviation, read-out: Kda (apparent affinity constant)
T1 sequence (A0A0S0VKY7 1-161 I110V): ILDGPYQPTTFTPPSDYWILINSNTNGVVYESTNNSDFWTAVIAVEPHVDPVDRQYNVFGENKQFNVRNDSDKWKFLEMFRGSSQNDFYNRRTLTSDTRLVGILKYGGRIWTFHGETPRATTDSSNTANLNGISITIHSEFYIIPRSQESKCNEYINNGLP
From the text: Selected residues in the GST::VP8* P[8] were replaced for alanine or valine according to the structural data of the LNB binding site. Four mutants (M1–M4) were constructed using a Quick-Change site-directed mutagenesis kit (Stratagene) and appropriate oligonucleotides (S5 Table), and the DNA changes were confirmed by DNA sequencing. Mutant M1, M2 and M3 contained changes in the codons for tryptophan 174, arginine 209 and glutamic 212 residues, respectively, that introduced an alanine at each position. Mutant M4 substituted isoleucine 173 by valine.
The affinity assays were based on SPR and performed in a Biacore T100 instrument (GE Healthcare). H1 PAA-biotin and LNB PAA-biotin were diluted to a concentration of 1 mg/ml in water and captured with streptavidin present in a SA sensor chip (GE Healthcare). H1 was immobilized in channel 2 (630 RU) of the sensor chip and LNB was immobilized in channel 4 (624 RU). The channels 1 and 3 were used as the reference surfaces for channels 2 and 4, respectively. The immobilization process was performed by conditioning the sensor chip surface with three consecutive 1-minute injections of 1 M NaCl 50 mM NaOH before biotinylated ligands were immobilized at a flow rate of 15 μl/min. The affinity assays of VP8* polypeptides to biotinylated sugars were performed at 10°C using 1X HBS-EP^+ buffer (0.01 M HEPES pH 7.4, 0.15 M NaCl, 3 mM EDTA, 0.005% Surfactant P20), a flow rate of 5 μl/min with 2700 seconds of contact time and a dissociation time of 1800 seconds. The regeneration step consisted in a wash step with 10 mM Glycine-HCl pH 2 for 20 seconds at the same flow rate. The assays were performed with purified VP8* at different concentrations (45; 137; 411; 1,234; 3,703; 11,111; 33,333; 100,000 and 200,000 nM). Each run included three blanks without sample. […] Since multivalent oligosaccharides are immobilized on a sensor chip surface, avidity and rebinding effects can take place and apparent affinity constants (Kda) are calculated with this experimental setup. […]

[1] = system: rotavirus Wa strain (G1P[8]) in MA104 cells; assay: Blocking of rotavirus infection in MA104 cells (fluorescent focus assay); assay type: cell-based, human rotavirus; conditions: sugar at 5 mg/mL
Experimental: The G1P[8] Wa strain was tested on MA104 cells. The sugars LNB, GNB, GlcNAc, GalNAc, D-galactose and L-fucose were tested for their effect on rotavirus infectivity. The oligosaccharides were previously heat sterilized at 99°C for 10 min and then dissolved in serum-free DMEM containing 1 μg/ml trypsin. Serum-free DMEM containing […] oligosaccharide was used as a control in each experiment.
The effect of different mono- and disaccharides on rotavirus infectivity was assessed through standard fluorescent focus assays on MA104 cells. The dilution of Wa virus stocks that yielded ~150 focus-forming units/well was first established. Then, sugars were added during virus inoculation at a final concentration of 5 mg/ml, incubated for 1 hour, and unbound virus was removed by washing with FBS-DMEM. The cells were allowed to be infected for 16h, washed once with PBS and fixed with 100% methanol. A mouse anti-VP6 primary antibody (1:50 dilution in PBS containing 3% BSA) was added and incubation proceeded for 30 min at room temperature with gentle rotation. […] Individual fluorescence foci were counted on an inverted fluorescence microscope with a FITC-compatible filter. […] Virus titer measured in the absence of oligosaccharides was considered to be 100% infectivity, and changes in virus titer in the presence of sugars were expressed as percentage of infectivity compared with no sugar treatment.

VP8* P[8] = assay: ELISA-like binding assay to biotinylated HBGAs; parameters: species or system human rotavirus; conditions: biotinylated PAA glycan 2 μg/ml, VP8* 10 μg/ml
From the text: (§1) A panel of biotinylated sugar antigens including Le^a, Le^b, Le^c (lacto-N-biose; LNB), H type-1, H type-2 and blood group A and B trisaccharides were purchased from Glyconz (Fig 1 and S1 Table). These glycans are biotinylated neoglyconjugates of a poly[N-(2-hydroxyethyl)acrylamide] (PAA) with a size from 30 to 50 KDa. This forms a flexible polymer ideal for a multivalent presentation of glycans. Immobilized streptavidin F96 black plates (Nunc) were coated with the biotinylated oligosaccharides (2 μg/ml) in milli-Q water and incubated during 1 hour at 37°C. After functionalization the plates were washed once with PBS containing 0.05% of Tween 20 (PBS-T) and the VP8* proteins were added (10 μg/ml) and incubated at 4°C overnight. After three washes with PBS-T, a rabbit polyclonal antibody anti GST (1:1,000) (Abcam) was added and the plates were incubated one hour at 37°C. Then, the plates were washed three times with PBS-T and incubated for 1 h at 37°C with 1:10,000 dilution of horseradish peroxidase (HRP)-conjugated goat anti-rabbit (Abcam). After three washes with PBS-T, the binding was detected using QuantaBlue reagent (ThermoFisher) kit, as recommended by the manufacturer. Fluorescence units were registered by a MultiScan microplate reader. All the binding assays were performed in triplicate.

VP8* P[4] = assay: ELISA-like binding assay to biotinylated HBGAs; parameters: species or system human rotavirus; conditions: biotinylated PAA glycan 2 μg/ml, VP8* 10 μg/ml
From the text: as §1

VP8* P[6] = assay: ELISA-like binding assay to biotinylated HBGAs; parameters: species or system human rotavirus; conditions: biotinylated PAA glycan 2 μg/ml, VP8* 10 μg/ml
From the text: as §1

| Structure (SMILES) | Kd (P[8]c M4(Ile173Val) VP8*) | reduction of viral infection [1] | binding (ELISA-like) (VP8* P[8]) | Kda of VP8 I173V compared to the wild-type protein (P[8]c M4(Ile173Val) VP8*; higher than wild-type P[8]c) | binding (ELISA-like) (VP8* P[4]) | binding (ELISA-like) (VP8* P[6]) |
| --- | --- | --- | --- | --- | --- | --- |
| CC(=O)NC1C(O)OC(CO)C(O)C1OC1OC(CO)C(O)C(O)C1O (stereo not drawn) [LNB, Gal-β1,3-GlcNAc] | 49.4 µM | 33% | recognize |  |  |  |
| CC(=O)NC1C(O)OC(CO)C(O)C1OC1OC(CO)C(O)C(O)C1OC1OC(C)C(O)C(O)C1O (stereo not drawn) [H1, Fuc-α1,2-Gal-β1,3-GlcNAc] | 39 µM |  | recognized | 1.4 fold | recognized | recognized |
